Series [1] is described as follows: Apparent water solubility and dissolution of the solid state forms.
Series [2] in a line: Stability / water uptake of the solid state forms on exposure to relative humidity. It counts as physicochemical.

Usually solubility stands for the concentration that dissolves in the medium under given conditions.

Regarding `CN1CCN(CCCCN2C(=O)CN(/N=C/c3ccc(-c4ccc(Cl)cc4)o3)C2=O)CC1.Cl.Cl` [hemi-hydrate, (E)-1-[[[5-(4-chlorophenyl)-2-furanyl]methylene]amino]-3-[4-(4-methyl-1-piperazinyl)butyl]-2,4-imidazolidinedione dihydrochloride], in series [1] (water), the “dissolution rate compared with the anhydrate form” value is listed as “more rapid”. The solubility in series [1] (water, apparent water solubility, room temperature) is ~170 mg/mL. Further, the water content stability entry in series [2] (room temperature, relative humidity range of 12% to 85% RH) is on record as “stable”.

As for `CN1CCN(CCCCN2C(=O)CN(/N=C/c3ccc(-c4ccc(Cl)cc4)o3)C2=O)CC1.Cl.Cl` [anhydrate, (E)-1-[[[5-(4-chlorophenyl)-2-furanyl]methylene]amino]-3-[4-(4-methyl-1-piperazinyl)butyl]-2,4-imidazolidinedione dihydrochloride], the “solubility as per the USP definition of solubility” value in series [1] is on record as “freely soluble”. Besides, in series [1] (water), the solubility was 160 mg/mL. The “hygroscopicity (water uptake)” value in series [2] (room temperature, 85% relative humidity, up to 4 weeks) is reported as “no evidence of water uptake”.

With `CN1CCN(CCCCN2C(=O)CN(/N=C/c3ccc(-c4ccc(Cl)cc4)o3)C2=O)CC1.Cl.Cl` [isopropanol solvate, (E)-1-[[[5-(4-chlorophenyl)-2-furanyl]methylene]amino]-3-[4-(4-methyl-1-piperazinyl)butyl]-2,4-imidazolidinedione dihydrochloride], the apparent water solubility in series [1] (water, room temperature, dihydrochloride) came out at 220 mg/mL. In addition, in series [2] (85% relative humidity), the “solid form conversion on humidity exposure” value is “converts to the anhydrate form within days to weeks”. Also, in series [2] (exposure to humidity), the “stability upon exposure to humidity” value is given as “not stable”.

Source of the values: patent US9035052B2, “Compositions of azimilide dihydrochloride” (WARNER CHILCOTT COMPANY, LLC, priority 2006, dated 2015).
